Data from US12465594B2 (Brown University, priority 2018, dated 2025).

What was measured:
[1] = Brain homogenate binding (equilibrium dialysis); format: in vitro ADME; details: rat brain homogenate
Excerpt: Both compounds were then profiled for their plasma protein binding (PPB) and brain homogenate binding (BHB) to predict the unbound drug fraction in the plasma and brain respectively.

[2] = target: T1, 5-HT1D (Homo sapiens, UniProt P28221); experiment: PDSP binding assay; details: 10 μM, quadruplicate, cloned target
T1 construct: NIMH Psychoactive Drug Screening Program (PDSP)
T1 sequence (P28221 whole entry, species assumed): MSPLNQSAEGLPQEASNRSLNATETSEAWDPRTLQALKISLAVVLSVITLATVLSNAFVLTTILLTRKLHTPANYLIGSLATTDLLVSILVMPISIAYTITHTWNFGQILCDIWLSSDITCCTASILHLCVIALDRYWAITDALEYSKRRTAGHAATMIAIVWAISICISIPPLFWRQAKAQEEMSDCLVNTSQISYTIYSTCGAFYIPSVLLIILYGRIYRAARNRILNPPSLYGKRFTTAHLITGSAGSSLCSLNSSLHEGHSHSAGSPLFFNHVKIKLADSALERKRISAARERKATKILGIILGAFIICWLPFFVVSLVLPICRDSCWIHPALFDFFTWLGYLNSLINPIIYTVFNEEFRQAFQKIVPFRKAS

[3] = target: CRF1 (Homo sapiens, UniProt P34998); experiment: CRF1 Ca2+ assay; details: presence of EC80 CRF
Sequence of CRF1 (P34998 24-415): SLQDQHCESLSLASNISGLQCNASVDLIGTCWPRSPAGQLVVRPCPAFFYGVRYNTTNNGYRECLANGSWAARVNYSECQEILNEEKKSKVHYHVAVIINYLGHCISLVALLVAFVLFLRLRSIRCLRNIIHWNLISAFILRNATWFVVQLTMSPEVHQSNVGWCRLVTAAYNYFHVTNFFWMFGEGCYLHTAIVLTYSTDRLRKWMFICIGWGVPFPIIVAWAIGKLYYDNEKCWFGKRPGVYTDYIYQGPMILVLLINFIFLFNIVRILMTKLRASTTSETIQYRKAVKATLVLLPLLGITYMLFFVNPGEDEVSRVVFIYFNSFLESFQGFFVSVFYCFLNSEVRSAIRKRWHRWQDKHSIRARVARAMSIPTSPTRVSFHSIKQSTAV

[4] = target: CRF2 (Homo sapiens, UniProt Q13324); experiment: CRF2 Ca2+ assay (absence of CRFBP(10 kD)); details: presence of EC80 CRF
Sequence of CRF2 (Q13324 whole entry): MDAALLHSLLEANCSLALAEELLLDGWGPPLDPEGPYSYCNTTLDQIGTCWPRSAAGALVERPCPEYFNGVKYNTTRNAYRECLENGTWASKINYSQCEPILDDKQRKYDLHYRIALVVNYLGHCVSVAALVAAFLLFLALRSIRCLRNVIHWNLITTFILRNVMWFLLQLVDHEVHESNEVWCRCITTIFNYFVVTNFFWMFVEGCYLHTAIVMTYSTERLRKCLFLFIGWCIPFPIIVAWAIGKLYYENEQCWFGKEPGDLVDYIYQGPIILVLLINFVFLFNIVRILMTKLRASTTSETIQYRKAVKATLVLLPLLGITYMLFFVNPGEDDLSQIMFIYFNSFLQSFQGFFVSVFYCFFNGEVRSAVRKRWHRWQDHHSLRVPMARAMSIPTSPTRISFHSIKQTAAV

| SMILES | Brain homogenate binding, free [1] | Activity at 5-HT1D (binding assay) [2] | CRF1 activity [3] | Activity toward CRF2 in the absence of CRFBP(10 kD) [4] |
| --- | --- | --- | --- | --- |
| CC(C)Cn1c(SCC(=O)N2CCc3ccccc3C2)nc2cc(Cl)ccc2c1=O [MLS-0219419] | 0.0 % free | −5% | inactive | – |
| Brc1ccccc1-c1nnc(CSc2nnnn2-c2ccccc2)o1 [MLS-0046818] | 2.3 % free | −5% | inactive | inactive |
